Data reported in ChEMBL document CHEMBL1201862, “PubChem BioAssay data set” (2004).
Calls of active or inactive are those of the source.

Experiments:
[1] = target: T1, Sentrin-specific protease 1 (Homo sapiens, UniProt Q9P0U3); assay: SENP1 catalytic domain blockers, concentration series – biochemical, kinetic FRET, dose response (AID 651697); type: functional; conditions: read-out: IC50_Mean
T1 sequence (Q9P0U3 whole entry): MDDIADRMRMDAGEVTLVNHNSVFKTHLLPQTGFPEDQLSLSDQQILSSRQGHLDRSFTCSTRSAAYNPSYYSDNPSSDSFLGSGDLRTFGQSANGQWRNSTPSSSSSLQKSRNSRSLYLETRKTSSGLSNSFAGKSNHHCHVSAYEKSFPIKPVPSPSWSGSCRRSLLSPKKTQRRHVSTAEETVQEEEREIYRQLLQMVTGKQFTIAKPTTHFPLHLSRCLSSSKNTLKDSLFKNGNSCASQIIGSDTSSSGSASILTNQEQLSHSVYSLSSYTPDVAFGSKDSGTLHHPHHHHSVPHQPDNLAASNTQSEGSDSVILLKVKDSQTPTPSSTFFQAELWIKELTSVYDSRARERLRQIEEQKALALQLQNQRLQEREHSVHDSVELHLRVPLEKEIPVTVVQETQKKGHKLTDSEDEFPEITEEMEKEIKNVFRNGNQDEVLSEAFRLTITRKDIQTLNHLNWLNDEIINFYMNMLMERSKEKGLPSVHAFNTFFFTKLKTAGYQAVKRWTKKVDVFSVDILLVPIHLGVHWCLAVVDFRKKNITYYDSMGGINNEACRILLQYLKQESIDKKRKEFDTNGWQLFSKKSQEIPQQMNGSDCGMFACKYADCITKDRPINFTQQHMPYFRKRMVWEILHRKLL

[2] = target: T1, Sentrin-specific protease 1; assay: Dose response confirmation of small molecule inhibitors of the catalytic domain of the SUMO protease, SENP1 in a FRET assay.; type: functional; conditions: read-out: IC50_Mean
Fatty acid synthase [3] = target: T2, Fatty acid synthase (Homo sapiens, UniProt P49327); assay: inhibition of human FAS-TE enzyme activity – biochemical, kinetic fluorescence intensity, dose response (AID 624326); type: functional;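 also: rate of fluorescence rise from hydrolysis of a fluorogenic O-methyl fluorescein ester substrate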
T2 sequence (P49327 whole entry): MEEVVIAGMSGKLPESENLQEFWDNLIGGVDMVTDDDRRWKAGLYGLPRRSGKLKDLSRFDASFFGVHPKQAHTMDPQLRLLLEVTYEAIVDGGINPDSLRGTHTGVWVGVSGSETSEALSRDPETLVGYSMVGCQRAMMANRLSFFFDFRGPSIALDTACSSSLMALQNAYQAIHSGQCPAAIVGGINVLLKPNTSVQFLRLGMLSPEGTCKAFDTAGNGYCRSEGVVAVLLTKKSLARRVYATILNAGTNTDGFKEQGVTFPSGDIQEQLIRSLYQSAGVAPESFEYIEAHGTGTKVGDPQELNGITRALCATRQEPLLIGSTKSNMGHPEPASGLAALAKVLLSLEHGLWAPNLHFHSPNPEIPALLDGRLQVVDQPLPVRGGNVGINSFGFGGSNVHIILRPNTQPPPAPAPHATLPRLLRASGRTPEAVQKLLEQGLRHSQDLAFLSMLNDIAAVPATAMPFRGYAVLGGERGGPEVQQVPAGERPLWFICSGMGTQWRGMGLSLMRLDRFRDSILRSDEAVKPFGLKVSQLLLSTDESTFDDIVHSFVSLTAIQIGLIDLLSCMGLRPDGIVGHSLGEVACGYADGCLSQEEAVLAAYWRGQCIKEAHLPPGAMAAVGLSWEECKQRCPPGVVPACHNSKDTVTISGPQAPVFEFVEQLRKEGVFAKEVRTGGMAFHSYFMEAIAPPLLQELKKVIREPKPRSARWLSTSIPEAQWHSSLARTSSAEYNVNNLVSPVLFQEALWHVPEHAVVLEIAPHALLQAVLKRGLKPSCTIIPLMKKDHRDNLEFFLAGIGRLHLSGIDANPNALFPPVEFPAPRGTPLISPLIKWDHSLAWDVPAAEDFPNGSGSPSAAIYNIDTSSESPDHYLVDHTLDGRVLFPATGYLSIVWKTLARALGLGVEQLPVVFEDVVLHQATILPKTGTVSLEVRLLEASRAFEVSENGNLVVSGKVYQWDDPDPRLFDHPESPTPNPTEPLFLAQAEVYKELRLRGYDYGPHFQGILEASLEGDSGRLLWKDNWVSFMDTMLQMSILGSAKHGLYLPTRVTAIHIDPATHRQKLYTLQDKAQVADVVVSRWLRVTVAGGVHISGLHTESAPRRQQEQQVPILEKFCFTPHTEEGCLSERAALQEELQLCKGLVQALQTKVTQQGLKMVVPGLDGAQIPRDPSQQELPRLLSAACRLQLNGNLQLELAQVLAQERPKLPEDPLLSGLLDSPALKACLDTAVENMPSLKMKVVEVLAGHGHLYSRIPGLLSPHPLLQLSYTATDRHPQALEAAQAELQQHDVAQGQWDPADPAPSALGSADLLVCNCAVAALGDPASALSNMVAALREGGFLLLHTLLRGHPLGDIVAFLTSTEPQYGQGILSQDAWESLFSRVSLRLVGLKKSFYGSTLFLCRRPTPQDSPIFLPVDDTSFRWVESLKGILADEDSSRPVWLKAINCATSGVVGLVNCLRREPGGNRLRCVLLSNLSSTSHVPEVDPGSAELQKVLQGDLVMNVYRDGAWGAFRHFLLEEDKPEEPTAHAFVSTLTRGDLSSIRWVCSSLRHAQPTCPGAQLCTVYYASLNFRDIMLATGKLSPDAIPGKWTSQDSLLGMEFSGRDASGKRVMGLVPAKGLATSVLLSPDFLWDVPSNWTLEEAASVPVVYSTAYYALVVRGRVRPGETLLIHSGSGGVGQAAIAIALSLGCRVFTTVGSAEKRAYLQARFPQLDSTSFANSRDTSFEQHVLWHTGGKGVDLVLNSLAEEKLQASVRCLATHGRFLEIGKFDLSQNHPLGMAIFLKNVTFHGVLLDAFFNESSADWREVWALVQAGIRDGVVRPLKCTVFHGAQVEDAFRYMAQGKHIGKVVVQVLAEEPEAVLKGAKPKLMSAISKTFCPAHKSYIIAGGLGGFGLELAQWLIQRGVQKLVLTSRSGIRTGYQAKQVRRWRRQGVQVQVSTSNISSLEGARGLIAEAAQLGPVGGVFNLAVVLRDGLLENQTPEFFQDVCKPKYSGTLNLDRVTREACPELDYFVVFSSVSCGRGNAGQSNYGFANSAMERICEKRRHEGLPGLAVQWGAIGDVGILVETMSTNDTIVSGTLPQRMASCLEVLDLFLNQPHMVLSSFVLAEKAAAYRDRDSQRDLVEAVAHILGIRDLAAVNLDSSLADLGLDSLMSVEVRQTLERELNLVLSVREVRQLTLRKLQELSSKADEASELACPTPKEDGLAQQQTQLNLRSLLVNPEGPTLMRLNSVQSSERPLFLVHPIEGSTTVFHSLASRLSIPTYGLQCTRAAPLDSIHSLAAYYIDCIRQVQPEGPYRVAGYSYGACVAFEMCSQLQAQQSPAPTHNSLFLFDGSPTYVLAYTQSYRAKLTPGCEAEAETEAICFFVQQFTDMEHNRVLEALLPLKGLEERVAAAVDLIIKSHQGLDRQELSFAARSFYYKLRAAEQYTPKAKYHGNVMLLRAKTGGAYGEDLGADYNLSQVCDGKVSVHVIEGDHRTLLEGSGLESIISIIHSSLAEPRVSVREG

[4] = target: T3, Corticotropin-releasing factor receptor 2/Corticotropin-releasing factor-binding protein (Homo sapiens, UniProt P24387+Q13324); assay: Dose Response confirmation of uHTS hits for small molecule antagonists of the CRF-binding protein and CRF-R2 receptor complex.; type: functional; conditions: read-out: IC50_Mean
T3 sequence (Q13324 whole entry): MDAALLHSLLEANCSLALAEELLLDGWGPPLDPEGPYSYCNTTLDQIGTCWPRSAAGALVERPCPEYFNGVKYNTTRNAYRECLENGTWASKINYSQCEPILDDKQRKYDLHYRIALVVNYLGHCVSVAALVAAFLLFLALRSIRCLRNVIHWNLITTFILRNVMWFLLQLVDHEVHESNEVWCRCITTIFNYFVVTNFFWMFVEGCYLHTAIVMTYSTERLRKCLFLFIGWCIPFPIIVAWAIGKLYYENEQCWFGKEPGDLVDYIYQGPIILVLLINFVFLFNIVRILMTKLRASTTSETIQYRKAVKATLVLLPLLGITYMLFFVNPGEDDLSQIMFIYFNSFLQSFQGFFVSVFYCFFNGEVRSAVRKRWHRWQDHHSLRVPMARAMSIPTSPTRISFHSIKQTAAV
T3 sequence (P24387 whole entry): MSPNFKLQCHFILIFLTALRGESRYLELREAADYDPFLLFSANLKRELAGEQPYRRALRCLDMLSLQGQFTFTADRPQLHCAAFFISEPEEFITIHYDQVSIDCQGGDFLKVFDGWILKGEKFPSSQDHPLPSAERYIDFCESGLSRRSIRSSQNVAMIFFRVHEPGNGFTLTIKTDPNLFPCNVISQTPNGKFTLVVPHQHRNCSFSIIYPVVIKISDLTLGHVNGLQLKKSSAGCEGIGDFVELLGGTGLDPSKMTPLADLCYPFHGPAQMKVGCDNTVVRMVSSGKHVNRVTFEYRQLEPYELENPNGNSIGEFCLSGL

Fatty acid synthase [5] = target: T2, Fatty acid synthase; assay: inhibition of human FAS-TE enzyme activity – biochemical, endpoint fluorescence intensity, uHTS hits, dose response (AID 624327); type: functional;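 also: fluorescence from hydrolysis of an O-methyl fluorescein acyl ester substrate by the enzyme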
[6] = target: G-protein coupled receptor 55 (Homo sapiens, UniProt Q9Y2T6); assay: inhibition of LPI-stimulated GPR55 beta-arrestin translocation – imaging, U2OS, beta-arrestin-GFP, LPI agonist, primary screen (AID 2013); type: functional;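 also: antagonist potency measured as reduced agonist-driven arrestin aggregation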
G-protein coupled receptor 55, sequence (Q9Y2T6 whole entry): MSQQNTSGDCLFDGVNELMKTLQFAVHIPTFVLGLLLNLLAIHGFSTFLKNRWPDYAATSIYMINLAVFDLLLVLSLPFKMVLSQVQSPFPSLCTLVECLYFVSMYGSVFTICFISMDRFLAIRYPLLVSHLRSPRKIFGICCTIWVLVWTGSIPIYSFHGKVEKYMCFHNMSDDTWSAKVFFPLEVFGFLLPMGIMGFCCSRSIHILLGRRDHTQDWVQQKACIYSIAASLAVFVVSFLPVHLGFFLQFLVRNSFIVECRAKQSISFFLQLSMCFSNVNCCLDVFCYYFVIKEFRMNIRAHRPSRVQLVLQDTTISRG

[7] = blockers of CRF-binding protein–CRF-R2 complex – cell-based, uHTS hits, 384-well, dose response (AID 651639); type: functional, Homo sapiens; conditions: read-out: IC50_Mean
[8] = target: T3, Corticotropin-releasing factor receptor 2/Corticotropin-releasing factor-binding protein; assay: activators of CRF receptor 2 with binding protein – uHTS hits, confirmation (AID 602473); type: functional; conditions: read-out: EC50_Mean
[9] = target: T4, Heat shock factor protein 1 (Mus musculus, UniProt P38532); assay: decrease of HSF1-responsive luciferase luminescence – cell-based, NIH3T3, dose retest, confirmation (AID 2382); type: functional;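 also: NIH3T3 fibroblasts with HSF1-driven luciferase reporter stressed by proteasome inhibitor MG132; luminescence from HSF1-driven luciferase expression after 8 hours of MG132 stress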
T4 sequence (P38532 whole entry): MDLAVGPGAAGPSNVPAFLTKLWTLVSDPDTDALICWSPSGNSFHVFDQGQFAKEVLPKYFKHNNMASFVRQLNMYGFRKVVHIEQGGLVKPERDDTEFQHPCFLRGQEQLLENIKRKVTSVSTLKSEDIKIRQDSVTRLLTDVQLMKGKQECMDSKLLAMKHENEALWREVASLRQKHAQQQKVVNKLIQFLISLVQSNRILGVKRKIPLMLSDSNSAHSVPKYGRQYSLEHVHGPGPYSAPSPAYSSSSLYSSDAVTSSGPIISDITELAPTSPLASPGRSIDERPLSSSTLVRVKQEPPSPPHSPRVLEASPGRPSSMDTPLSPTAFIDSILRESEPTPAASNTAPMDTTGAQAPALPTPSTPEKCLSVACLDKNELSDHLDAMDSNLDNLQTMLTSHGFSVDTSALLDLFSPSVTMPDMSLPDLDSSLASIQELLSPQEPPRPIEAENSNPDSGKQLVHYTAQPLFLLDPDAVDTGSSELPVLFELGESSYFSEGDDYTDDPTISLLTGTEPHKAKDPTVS

[10] = target: Glucose-6-phosphate 1-dehydrogenase (Homo sapiens, UniProt P11413); assay: inhibition of Homo sapiens G6PD, dose series – biochemical, fluorescence, selectivity assay for P. falciparum G6PD inhibitor project, dose response (AID 504792); type: functional
Glucose-6-phosphate 1-dehydrogenase, sequence (P11413 whole entry): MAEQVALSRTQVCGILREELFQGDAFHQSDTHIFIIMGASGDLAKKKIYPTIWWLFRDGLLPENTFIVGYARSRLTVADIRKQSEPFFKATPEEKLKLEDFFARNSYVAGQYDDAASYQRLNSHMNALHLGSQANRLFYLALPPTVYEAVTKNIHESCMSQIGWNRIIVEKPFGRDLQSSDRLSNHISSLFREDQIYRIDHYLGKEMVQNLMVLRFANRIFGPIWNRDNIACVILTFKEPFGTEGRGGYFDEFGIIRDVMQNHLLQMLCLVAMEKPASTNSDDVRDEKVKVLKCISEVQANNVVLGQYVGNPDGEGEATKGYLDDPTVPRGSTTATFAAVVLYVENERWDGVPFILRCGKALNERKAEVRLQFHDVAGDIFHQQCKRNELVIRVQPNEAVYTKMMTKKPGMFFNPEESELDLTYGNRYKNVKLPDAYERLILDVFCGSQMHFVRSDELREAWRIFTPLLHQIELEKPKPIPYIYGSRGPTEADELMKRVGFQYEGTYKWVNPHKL

HEK293 = assay: EBV LMP1 TES2 canonical NF-kB signalling blockers – cell-based, HEK293, luciferase, cherry-pick, dose response (AID 588343); type: functional; conditions: Homo sapiens
[11] = target: T5, Zinc finger protein mex-5 (Caenorhabditis elegans, UniProt Q9XUB2); assay: potency of MEX-5 RNA-binding blockers – biochemical, C. elegans, fluorescence polarization, dose response (AID 1960)
T5 sequence (Q9XUB2 whole entry): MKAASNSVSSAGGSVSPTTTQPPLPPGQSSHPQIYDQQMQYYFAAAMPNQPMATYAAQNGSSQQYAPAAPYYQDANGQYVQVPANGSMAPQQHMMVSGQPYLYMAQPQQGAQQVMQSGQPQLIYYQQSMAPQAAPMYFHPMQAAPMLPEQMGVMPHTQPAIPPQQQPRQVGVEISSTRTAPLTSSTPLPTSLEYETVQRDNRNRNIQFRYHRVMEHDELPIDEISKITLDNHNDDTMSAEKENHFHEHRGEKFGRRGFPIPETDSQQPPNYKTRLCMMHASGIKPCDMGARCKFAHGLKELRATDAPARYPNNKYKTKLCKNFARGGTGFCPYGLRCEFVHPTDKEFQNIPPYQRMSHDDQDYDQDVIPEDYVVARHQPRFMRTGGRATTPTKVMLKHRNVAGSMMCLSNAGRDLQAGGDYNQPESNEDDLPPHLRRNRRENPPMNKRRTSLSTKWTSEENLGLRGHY

[12] = target: T6, RNA-binding protein pos-1 (Caenorhabditis elegans, UniProt G5EF15); assay: disruptors of C. elegans POS-1 RNA interaction – biochemical, fluorescence polarization, dose response (AID 1964);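 also: purified POS-1 fused to maltose binding protein made in E. coli; potency of compounds blocking POS-1 binding to fluorescent RNA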
T6 sequence (G5EF15 whole entry): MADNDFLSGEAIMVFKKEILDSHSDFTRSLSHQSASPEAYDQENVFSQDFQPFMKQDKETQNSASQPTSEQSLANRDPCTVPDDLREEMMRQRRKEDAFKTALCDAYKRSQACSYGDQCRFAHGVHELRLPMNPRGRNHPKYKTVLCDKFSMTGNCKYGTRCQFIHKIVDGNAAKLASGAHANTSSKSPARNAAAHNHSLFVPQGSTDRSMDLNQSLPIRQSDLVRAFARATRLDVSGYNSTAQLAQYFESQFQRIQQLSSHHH

Streptococcus = assay: GAS UMAA2166 growth inhibition – luminescence, BacTiterGlo, counter-screen for streptokinase expression inhibitor project, dose response (AID 1915); type: functional, organism-based;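 also: potency for reduction of bacterial viability or growth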
[13] = tested on: Streptococcus sp. 'group A'; assay: Streptococcus pyogenes SK(-)GAS viability under kanamycin – luminescence, BacTiterGlo, confirmation, counter-screen for streptokinase expression inhibitor project, dose response (AID 1900); type: functional, organism-based
Vero [14] = assay: cells; type: functional; conditions: Chlorocebus sabaeus
Vero [15] = assay: cells; type: functional, cell-based; conditions: Chlorocebus sabaeus
[16] = Trypanosoma cruzi growth suppression in host cells – NIH3T3 host cells, beta-gal luminescence, confirmation (AID 2044); type: functional, cell-based;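 also: intracellular parasites grown in NIH/3T3 mouse fibroblasts as host cells; luminescent beta-galactosidase reporter signal from transgenic T. cruzi replicating inside host cells; inhibitors lower the luminescence signal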
Streptokinase A = target: T7, Streptokinase A (Streptococcus pyogenes serotype M1, UniProt P10520); assay: viability-normalized secreted streptokinase activity reduction – plasminogen activation absorbance, OD405, dose response (AID 1914); type: functional, Streptococcus pyogenes M1 GAS;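 also: secreted streptokinase activity via plasminogen activation per viability signal from cell pellet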
T7 sequence (P10520 whole entry): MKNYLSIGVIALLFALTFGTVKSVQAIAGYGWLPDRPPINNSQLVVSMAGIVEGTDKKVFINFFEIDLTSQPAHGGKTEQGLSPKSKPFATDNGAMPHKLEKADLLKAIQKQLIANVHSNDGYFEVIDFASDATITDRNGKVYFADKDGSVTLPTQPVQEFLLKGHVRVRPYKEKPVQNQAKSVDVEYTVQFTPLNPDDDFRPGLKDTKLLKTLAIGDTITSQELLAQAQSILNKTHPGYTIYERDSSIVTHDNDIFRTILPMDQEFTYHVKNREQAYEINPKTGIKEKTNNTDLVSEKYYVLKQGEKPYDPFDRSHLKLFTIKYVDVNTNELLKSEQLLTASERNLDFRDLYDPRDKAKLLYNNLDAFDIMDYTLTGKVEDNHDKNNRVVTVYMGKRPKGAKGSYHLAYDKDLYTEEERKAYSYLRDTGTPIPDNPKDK

[17] = NIH3T3 cell viability loss – ATP luminescence, mouse fibroblasts, counter-screen, dose response (AID 2010); type: functional, cell-based;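 also: cells exposed to compound for about 90 hours before reading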
[18] = Luminescence Cell-Based Dose Confirmation HTS to Identify Inhibitors of Platelet Dense Granule Release. [Related pubchem assays: 1663 (Primary HTS), 1678 (Summary of Project)]; type: functional
[19] = target: Luciferin 4-monooxygenase (Photinus pyralis, UniProt P08659); assay: inhibition of purified Photinus pyralis luciferase – biochemical, luminescence, dose response (AID 1891)
Luciferin 4-monooxygenase, sequence (P08659 whole entry): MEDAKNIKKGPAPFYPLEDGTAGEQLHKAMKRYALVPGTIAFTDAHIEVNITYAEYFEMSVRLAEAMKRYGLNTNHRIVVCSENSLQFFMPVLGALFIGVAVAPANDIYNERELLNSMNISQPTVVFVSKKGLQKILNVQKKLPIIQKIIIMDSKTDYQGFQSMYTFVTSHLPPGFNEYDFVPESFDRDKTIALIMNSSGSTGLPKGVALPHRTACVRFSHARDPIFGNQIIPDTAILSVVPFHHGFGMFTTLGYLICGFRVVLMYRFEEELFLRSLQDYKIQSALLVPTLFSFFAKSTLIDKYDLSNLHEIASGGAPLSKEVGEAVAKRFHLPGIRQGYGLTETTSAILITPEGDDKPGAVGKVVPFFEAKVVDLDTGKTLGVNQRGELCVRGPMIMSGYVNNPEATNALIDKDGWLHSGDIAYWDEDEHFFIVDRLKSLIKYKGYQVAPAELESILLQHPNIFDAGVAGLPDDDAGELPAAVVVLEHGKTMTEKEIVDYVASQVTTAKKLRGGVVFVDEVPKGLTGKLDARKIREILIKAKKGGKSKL

[20] = reduction of Shn3 3'UTR-driven luciferase in osteoblasts – cell-based, Clone20 osteoblasts, firefly luciferase, cherry-picked, dose response (AID 624132); type: functional;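 also: firefly luciferase luminescence from reporter carrying the Shn3 3'UTR in osteoblasts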
[21] = loss of viability in HepG2 cells – cell-based, CellTiter-Glo, cherry-picked, cytotoxicity control for Shn3 inhibitor project, dose response (AID 624134); type: functional
[22] = non-specific 3'UTR reporter inhibition in Clone20-Shn3RL – cell-based, Renilla luciferase, cherry-picked, counter-screen for Shn3 inhibitor project, dose response (AID 624133); type: functional
[23] = target: Dual specificity tyrosine-phosphorylation-regulated kinase 1A (Rattus norvegicus, UniProt Q63470); type: biochemical, Homo sapiens

## COc1ccc(NN=C2C(=O)NC(=S)NC2=O)cc1
[1]
  IC50: 29.1 µM (inactive)
[2]
  IC50: 16.6 µM (active)

## O=C(O)c1ccc(Cl)c(NC(=S)NC(=O)c2cccc(COc3ccccc3)c2)c1
Fatty acid synthase [3]
  IC50: 4.47 µM (active)
[4]
  IC50: < 0.368 µM (active)
Fatty acid synthase [5]
  IC50: 6.11 µM (active)
[6]
  IC50: 2.3 µM (active)
[7]
  IC50: > 20 µM (inactive)
[8]
  EC50: > 53 µM (inactive)

## Cn1c(-c2sccc2OCc2cccc(C(F)(F)F)c2)n[nH]c1=S
[9]
  EC50: > 195 µM (not active)
[10]
  IC50: > 80 µM (inactive)

## O=c1c2cnn(-c3ccccc3)c2nc(-c2cccs2)n1-c1ccc(Cl)cc1
HEK293
  AC50: 1.78 µM (active)

## O=C(CN1C(=O)/C(=C\C=C\c2ccccc2)SC1=S)Nc1ccc(F)cc1
[11]
  EC50: > 300 µM (not active)
[1]
  IC50: 7.54 µM (active)
[12]
  EC50: > 300 µM (not active)
[2]
  IC50: 5.21 µM (active)

## COc1ccc(C(=O)NNC(=S)NC(=O)/C=C/c2cccs2)cc1
Streptococcus
  EC50: 4.2 µM (active)
[13]
  EC50: 0.802 µM (active)
Vero [14]
  CC50: > 25 µM (active)
Vero [15]
  IC50: > 25 µM (active)

## Cc1ccc(N2CC(C(=O)OCC(=O)c3ccc([N+](=O)[O-])cc3)CC2=O)cc1 (stereo not drawn)
[10]
  IC50: > 80 µM (inactive)

## Oc1c(N=NC(S)=Nc2ccccc2F)c2ccccc2n1Cc1cccc(Cl)c1
Streptococcus
  EC50: > 150 µM (not active)
[16]
  EC50: 0.676 µM (active)
[13]
  EC50: 2.69 µM (active)
Streptokinase A
  EC50: > 150 µM (not active)
[17]
  EC50: 1.71 µM (active)
[18]
  EC50: > 112 µM (not active)
HEK293
  AC50: 4.15 µM (active)
[19]
  EC50: > 112 µM (not active)

## CCCCOc1ccc(OC(=O)Nc2cc(Cl)ccc2OC)cc1
[4]
  IC50: < 0.368 µM (active)
[7]
  IC50: > 20 µM (inactive)
[8]
  EC50: > 53 µM (inactive)

## CCC1CSC(Nc2ccc(C(=O)/C=C/c3ccc(OC)c(OC)c3)cc2)=N1 (stereo not drawn)
[20]
  AC50: 4.47 µM (active)
[21]
  AC50: 51.2 µM (active)
Vero [14]
  CC50: 18.1 µM (active)
[22]
  AC50: 6.23 µM (active)
Vero [15]
  IC50: 23.5 µM (active)

## CC(=O)Nc1cccc(-c2cnc(N)c(C(=O)c3cccnc3)n2)c1
HEK293
  AC50: 21.4 µM (active)
[23]
  AC50: 0.193 µM (active)
